According to US20240115540A1, “METHODS FOR PROVIDING HEALTH BENEFITS IN ANIMALS” (Société des Produits Nestlé S.A., priority 2022, published 2024):

Test system: db/db mice
Test: CKD mice study: db/db mice fed test diets for 8 weeks (glomerular hyperfiltration, glycogen storage, kidney histology)
Type: in vivo
Procedure: The present study used db/db mice at 8 weeks of age for 8 weeks of intervention. The mice were divided into 4 groups of 9-10 mice administered with different blends (the Control group was administered with standard AIN-93M diet, the Dapa Group was administered standard AIN-93M augmented with dapagliflozin at 10 mg/kg, the RPB group was administered a standard diet augmented with a renal protection blend, the RPB+ group was administered a standard diet augmented with a renal protection blend that included medium chain triglycerides); the diets are shown in Table 1. The blends were administered to study glomerular hyperfiltration and glycogen storage in tissues. Final weekly food intake, final body weight, final blood glucose level, final lean body mass, and final fat mass of the groups is presented in Table 2. Also presented in table 2 were GFR progression, urine albumin/creatine ratio, urine protein/creatinine ratio, glomerulosclerosis score, Periodic acid-Schiff (PAS) staining scores for distal convoluted tubule (DCT) lumen, PAS staining scores for intranuclear inclusions distal tubules, and PAS staining scores for cytoplamis aggregates distal tubules.
In addition to the measurements of Table 2, the mice were measured for hyalinosis on a scoring system of no hyalinosis, intermediate hyalinosis, or severe hyalinosis, where hyalinosis refers to the thickening of the walls of the glomerular arterioles by the deposits of homogenous hyaline material. […] The control group had 1 mouse with no hyalinosis, 4 mice with intermediate hyalinosis, and 4 with significant hyalinosis; the dapa group had 2 mice with no hyalinosis, 5 mice with intermediate hyalinosis, and 2 mice with significant hyalinosis, the RPB group had 5 mice with no hyalinosis, 4 mice with intermediate hyalinosis, and 1 mouse with significant hyalinosis, and the RPB+ group had 2 mice with no hyalinosis and 8 mice with intermediate hyalinosis.

[1] = glomerular arterioles, groups of 9-10
[2] = kidney tissue, 8 weeks of intervention

With `CCOc1ccc(Cc2cc([C@@H]3O[C@H](CO)[C@@H](O)[C@H](O)[C@H]3O)ccc2Cl)cc1` [Dapa, dapagliflozin] the GFR progression (8 weeks of intervention) was 0.01 mL/min, the “Blood glucose (final)” value (after 8 weeks of intervention) was 464.78 mg/dL and the “Fat mass (final)” value (after 8 weeks of intervention) was 23.99 g. The “Lean mass (final lean body mass)” value (after 8 weeks of intervention) was 15.31 g, the “number of mice with intermediate hyalinosis” value [1] was 5 mice and the “number of mice with no hyalinosis” value [1] was 2 mice. The “number of mice with significant (severe) hyalinosis” value [1] was 2 mice, the Glomerulosclerosis score [2] was 1.83 and the “PAS DCT lumen (PAS staining score, distal convoluted tubule lumen)” value [2] was 1.44. The “PAS cytoplasmic aggregates DT (PAS staining score, distal tubules)” value [2] was 1.78, the “PAS intranuclear inclusions DT (PAS staining score, distal tubules)” value [2] was 2.11 and the Albumin/Creatinine ratio (urine, 8 weeks of intervention) was 181.54. The Protein/Creatinine ratio (urine, 8 weeks of intervention) was 36.92.
